Laboratory results: patent US20240158440A1, “PEPTIDE AND COMPOSITION CONTAINING PEPTIDE AS ACTIVE INGREDIENT” (MORINAGA MILK INDUSTRY CO., LTD., priority 2021, published 2024)
No end group written: not given here.

Tests used:
Assay type in all cases: in vivo
male ddy mice [1] = test: Tail suspension test; settings: for Immobile Time (second): 30 minutes before the test, control 88.9, *P<0.05 vs Control; for Immobile Time: control 99.0
Experimental: A tail suspension test used for screening an antidepressant was conducted. When a mouse is hung by fixing its tail and thus put under inescapable conditions, it is believed that the mouse first tries to escape and moves but becomes immobile by despair with the time. On the other hand, in a mouse treated with an antidepressant, the time of escaping behavior increases, and the immobile time decreases. That is, when the immobile time decreases, the drug is evaluated to have an antidepressive effect.
The WPH synthesized in Production Example 1 was administered at a dose of 1 mg, 10 mg or 100 mg per 1 kg body weight to male ddy mice 30 minutes before the test, and 30 minutes later, the mice were hung by fixing their tails to conduct the test (WPH administration group, n=9-11). For six minutes after starting, the time with immobile behavior was recorded.
Moreover, as a control, the same test was conducted using male ddy mice to which the peptide as the test substance was not administered (control group, n=9-11).
From the obtained results, the times (second) with immobile behavior were calculated as an indicator of the antidepressive activity.
The peptide NLPPLT synthesized in Production Example 2 was administered at a dose of 10 μg or 30 μg per 1 kg body weight to male ddy mice 30 minutes before the test, and 30 minutes later, the mice were hung by fixing their tails to conduct the test (peptide NLPPLT administration group, n=5-6). For six minutes after starting, the time with immobile behavior was recorded.
Moreover, as a control, the same test was conducted using male ddy mice to which the peptide as the test substance was not administered (control group, n=5-6). […]

male ddy mice [2] = test: Open field test; settings: for Proportion (%) of Time of Stay in Center Circle / Proportion (%) of Number of Entries into Center Circle: 30 minutes before the test; for Proportion (%) of Time of Stay in Center Circle: control 0.3; for Proportion (%) of Number of Entries into Center Circle: control 1.5
Experimental: An open field test was conducted as a behavior test used for screening an antianxiety drug. […] […] Here, in this open field test, a circular field consisting of a plurality of concentric circles with a common center with different radii was used. The circle closest to the center in the field is considered as the center of the field, and the time in which a mouse placed in the center of the field stays in the center of the field is measured.
The peptide NLPPLT synthesized in Production Example 2 was administered at a dose of 10 μg, 30 μg or 100 μg per 1 kg body weight to male ddy mice 30 minutes before the test, and 30 minutes later, each mouse was put in the center of the field to conduct the test (peptide NLPPLT administration group, n=5). For five minutes after starting, the time of stay was recorded.
Moreover, as a control, the same test was conducted using male ddy mice to which the peptide as the test substance was not administered (control group, n=5-6).
From the obtained results, the proportions (%) of the time of stay were calculated as an indicator of the anxiolytic activity.

male ddy mice [3] = test: Elevated plus maze test
From the text: An elevated plus maze having a plus shape in which two flat plates (arms) of 25 cm×5 cm were crossed was placed at a height of 50 cm from the floor. One type of the arms is closed arms having transparent walls with a height of 15 cm, and a mouse can walk safely without fear of falling. The other arms are open arms without such walls, and the sides are open. […] Through anxiolytic treatment of a mouse, however, the time of stay in the open arms tends to be longer. Thus, in a confirmation test of an anxiolytic action, the anxiolytic activity becomes higher as the time of stay of a mouse in the open arms is longer or as the number of entries is higher. […]
The peptide NLPPLT synthesized in Production Example 2 was administered at a dose of 3 μg or 10 μg per 1 kg body weight to male ddy mice 30 minutes before the test, and 30 minutes later, each mouse was put on the central platform where the open arms crossed the closed arms to conduct the test (peptide NLPPLT administration group, n=6). For five minutes after starting, the total time of stay of the mouse on the open arms (time in open arms), the number of entries into the open arms (visit to open arms) and the total number of entries into the arms (total visits) were recorded.
Moreover, as a control, the same test was conducted using male ddy mice to which the peptide as the test substance was not administered (control group, n=6).
Furthermore, to examine the mechanism of action, the same test was conducted using male ddy mice to which 10 mg/kg of an antagonist of the serotonin 5-HT1A receptor, WAY100135 (manufactured by Tocris Bioscience) was orally administered in addition to 10 μg/kg body weight of the peptide NLPPLT synthesized in Production Example 2 (peptide NLPPLT+serotonin antagonist administration group, n=5).
From the obtained results, the proportions (%) of the time of stay on the open arms and the proportions (%) of the number of entries into the open arms were calculated as indicators of the anxiolytic activity, and the differences with a statistical significance were examined by the Tukey-Kramer method.

Compound	Immobile Time (second) (male ddy mice [1]; Table 6, 0.01 mg/kg)	Immobile Time (second) (male ddy mice [1]; Table 6, 0.03 mg/kg)	Immobile Time (male ddy mice [1]; Table 7, NLPPLT 0.01 mg/kg (p.o.) alone) [s]	Antidepressive activity (time with immobile behavior compared to control) (male ddy mice [1]; conclusion in words)	Proportion (%) of Time of Stay in Center Circle (male ddy mice [2]; 0.01 mg/kg) [%]	Proportion (%) of Number of Entries into Center Circle (male ddy mice [2]; 0.01 mg/kg) [%]	Proportion (%) of Time of Stay in Center Circle (male ddy mice [2]; 0.03 mg/kg) [%]	Proportion (%) of Number of Entries into Center Circle (male ddy mice [2]; 0.03 mg/kg) [%]	Proportion (%) of Time of Stay in Center Circle (male ddy mice [2]; 0.1 mg/kg) [%]	Proportion (%) of Number of Entries into Center Circle (male ddy mice [2]; 0.1 mg/kg) [%]	Anxiolytic activity (time of stay in center compared to control) (male ddy mice [2]; conclusion in words)	Proportion (%) of Time of Stay on Open Arms (male ddy mice [3]; Table 2, peptide alone (dose not given; 10 μg/kg), control 20.9) [%]	Proportion (%) of Number of Entries into Open Arms (male ddy mice [3]; Table 2, peptide alone (dose not given; 10 μg/kg), control 26.7) [%]	Proportion (%) of Time of Stay on Open Arms (male ddy mice [3]; Table 3, 3 μg/kg, 30 minutes before the test, control 15.4) [%]	Proportion (%) of Number of Entries into Open Arms (male ddy mice [3]; Table 3, 3 μg/kg, 30 minutes before the test, control 22.7) [%]	Proportion (%) of Time of Stay on Open Arms (male ddy mice [3]; Table 3, 10 μg/kg, 30 minutes before the test, control 15.4) [%]	Proportion (%) of Number of Entries into Open Arms (male ddy mice [3]; Table 3, 10 μg/kg, 30 minutes before the test, control 22.7) [%]	Anxiolytic activity (time of stay on / entries into open arms compared to control) (male ddy mice [3]; conclusion in words)	Immobile Time (male ddy mice [1]; Table 7, NBQX 10 mg/kg (i.p.) alone) [s]
NLPPLT [Peptide NLPPLT]	15.7* second	27.1* second	23.0	has an antidepressive activity	0.6	1.7	0.7	1.6	0.8	2.1	has an anxiolytic activity	33.1	35.1	19.9	23.4	24.4	31.7	has an anxiolytic activity	
NS(=O)(=O)c1cccc2c1c([N+](=O)[O-])cc1nc(O)c(O)nc12 [AMPA Antagonist, NBQX, reference compound]																			69.8
